Results taken from ChEMBL document CHEMBL5352411, “Synthesis and investigation of the trypanocidal potential of novel 1,2,3-triazole-selenide hybrids” (Eur J Med Chem, 2022).
pIC50: −log10 of the molar value. Each block holds one compound with its values, some of them ahead of it.

Experiments:
[1] = Cytotoxicity against HFF-1 cells incubated for 72 hrs by MTS tetrazolium assay; assay type: toxicity, cell-based; details: human
Trypanosoma cruzi = test: Antitrypanosomal activity against intracellular amastigote form of Trypanosoma cruzi Tulahuen expressing Escherichia coli LacZ gene infected in HFF-1 cells incubated for 120 hrs by automated microplate reader; assay type: functional, organism-based; details: HFF-1, 120 h
[2] = Selectivity index, ratio of CC50 for HFF-1 cells to IC50 for intracellular amastigote form of Trypanosoma cruzi Tulahuen expressing Escherichia coli LacZ gene infected in HFF-1 cells; assay type: toxicity; details: human, read-out: Selectivity Index
[3] = Electrochemical behavior of the compound assessed as oxidation onset potential by cyclic voltammetry analysis relative to normal hydrogen electrode; assay type: physicochemical
[4] = Electrochemical behavior of the compound assessed as reduction onset potential by cyclic voltammetry analysis relative to normal hydrogen electrode; assay type: physicochemical

Structure (SMILES): Cc1ccc(-n2cc(C[Se]c3ccccc3)nn2)cc1
- CC50 at 72 h [1]: > 64 µM
- pIC50 (Trypanosoma cruzi): 5.03
- selectivity ratio [2]: > 6.9
- Ep [3]: 0.85 V

Structure (SMILES): Cc1cccc(-n2cc(C[Se]c3ccccc3)nn2)c1
- CC50 at 72 h [1]: > 64 µM
- pIC50 (Trypanosoma cruzi): 5.04
- selectivity ratio [2]: > 7
- Ep [3]: 0.84 V

- pIC50 (Trypanosoma cruzi): 4.67
- Ep [3]: 1.06 V
Structure (SMILES): c1ccc(SCc2cn(-c3ccccc3)nn2)cc1

Structure (SMILES): Clc1ccc(-n2cc(C[Se]c3ccccc3)nn2)cc1
- CC50 at 72 h [1]: > 64 µM
- pIC50 (Trypanosoma cruzi): 4.94
- selectivity ratio [2]: > 5.6
- Ep [3]: 0.81 V

Structure (SMILES): Clc1ccc([Se]Cc2cn(-c3ccccc3)nn2)cc1
- CC50 at 72 h [1]: > 64 µM
- pIC50 (Trypanosoma cruzi): 4.77
- selectivity ratio [2]: 3.3
- Ep [3]: 0.84 V

Structure (SMILES): O=[N+]([O-])c1ccc(-n2cc(C[Se]c3ccccc3)nn2)cc1
- pIC50 (Trypanosoma cruzi): < 4.19
- Ep [3]: 0.9 V
- Ep [4]: -1.11 V

Structure (SMILES): Cc1cc(C)c([Se]Cc2cn(-c3ccccc3)nn2)c(C)c1
- pIC50 (Trypanosoma cruzi): 4.41
- Ep [3]: 1.03 V

Structure (SMILES): Fc1ccc([Se]Cc2cn(-c3ccccc3)nn2)cc1
- CC50 at 72 h [1]: 62.5 µM
- pIC50 (Trypanosoma cruzi): 4.94
- selectivity ratio [2]: > 5.5
- Ep [3]: 0.76 V

Structure (SMILES): Cc1ccc([Se]Cc2cn(-c3ccccc3)nn2)cc1
- CC50 at 72 h [1]: 56.1 µM
- pIC50 (Trypanosoma cruzi): 5.13
- selectivity ratio [2]: 8.4
- Ep [3]: 0.81 V

Structure (SMILES): FC(F)(F)c1cccc([Se]Cc2cn(-c3ccccc3)nn2)c1
- CC50 at 72 h [1]: > 64 µM
- pIC50 (Trypanosoma cruzi): 5.27
- selectivity ratio [2]: > 11.9
- Ep [3]: 0.97 V
- Ep [4]: -0.92 V

Structure (SMILES): c1ccc([Se]Cc2cn(-c3ccccc3)nn2)cc1
- CC50 at 72 h [1]: 48 µM
- pIC50 (Trypanosoma cruzi): 5.09
- selectivity ratio [2]: 5.9
- Ep [3]: 0.79 V

Structure (SMILES): c1ccc(-n2cc(C[Se]c3cccs3)nn2)cc1
- CC50 at 72 h [1]: 43.1 µM
- pIC50 (Trypanosoma cruzi): 4.81
- selectivity ratio [2]: 2.8
- Ep [3]: 1.22 V

- pIC50 (Trypanosoma cruzi): 5.68
Structure (SMILES): O=C(Cn1ccnc1[N+](=O)[O-])NCc1ccccc1 [BENZNIDAZOLE]
- CC50 at 72 h [1]: > 64 µM
- selectivity ratio [2]: > 30.5

Structure (SMILES): Clc1ccccc1-n1cc(C[Se]c2ccccc2)nn1
- CC50 at 72 h [1]: > 64 µM
- pIC50 (Trypanosoma cruzi): 4.82
- selectivity ratio [2]: > 4.2
- Ep [3]: 0.83 V

Structure (SMILES): Cc1ccccc1-n1cc(C[Se]c2ccccc2)nn1
- pIC50 (Trypanosoma cruzi): 5.01
- selectivity ratio [2]: > 6.5
- Ep [3]: 0.83 V

Structure (SMILES): c1ccc(-n2cc(C[Se]c3cccc4ccccc34)nn2)cc1
- CC50 at 72 h [1]: > 64 µM
- pIC50 (Trypanosoma cruzi): 5.51
- selectivity ratio [2]: > 20.6
- Ep [3]: 0.96 V
- Ep [4]: -0.82 V

Structure (SMILES): COc1ccc(-n2cc(C[Se]c3ccccc3)nn2)cc1
- CC50 at 72 h [1]: > 64 µM
- pIC50 (Trypanosoma cruzi): 4.90
- selectivity ratio [2]: > 5
- Ep [3]: 0.75 V
